These results are taken from patent US20240182873A1, “PRENYLTRANSFERASE AND A […], TISSUE, AND ORGANISM COMPRISING SAME” (YEDA RESEARCH AND DEVELOPMENT CO. LTD., priority 2021, published 2024).

The subject of assay [1] is Helichrysum umbraculigerum HuPTx (SEQ ID NO: 7), N-terminal plastid targeting sequence removed. As to the kind of experiment: Steady state kinetic analysis of HuPTx with olivetolic acid and GPP (yeast microsomes, CBGA production). The assay is classed as biochemical. The note with it: varying olivetolic acid (0.5 μM-1.5 mM), constant GPP (1 mM), pH 8.5, 30° C., 15 min, n=3. The protocol: (§1) FIG. 4 includes graphs showing steady state kinetic analysis of Helichrysum umbraculigerum PT1 (HuPT1; SEQ ID NO: 1), HuPT3 (SEQ ID NO: 3) and HuPTx (SEQ ID NO: 7) with olivetolic acid and GPP. The Michaelis-Menten Km value of each enzyme was calculated using varying olivetolic acid (0.5 μM-1.5 mM) and constant GPP (1 mM) concentrations (n=3 technically independent samples; measurements were plotted individually).
(§2) HuPT1 (SEQ ID NO: 1), HuPT2 (SEQ ID NO: 2), HuPT3 (SEQ ID NO: 3), HuPTx (SEQ ID NO: 7) genes from H. umbraculigerum and GOT4 gene from Cannabis sativa were separately cloned into pESC-HIS vector. Microsomal preparations from yeast cells transformed with pESC-HIS vectors were performed as described by Jozwiak et al. (2020). PT enzymatic assay was carried out as described previously for CsGOT4 (Luo et al., 2019).
(§3) Microsomes (2 μl) were dissolved in reaction buffer (50 mM Tris-HCl, 10 mM MgCl2, pH 8.5) and substrate was added [0.5 μM-1.5 mM μM olivetolic acid (Cayman Chemicals), 1 mM geranyl pyrophosphate (GPP, Sigma Aldrich)] to a total volume of 50 μl. Samples were incubated for 15 min at 30° C. Samples were extracted with 100 μl […] followed by vortexing and centrifugation. The organic layer was filtered and analyzed via UPLC-qTOF and Triple Quad (TQ) instruments. […]

The test system of assay [2] is Helichrysum umbraculigerum PT1 (HuPT1; SEQ ID NO: 1), N-terminal plastid targeting sequence removed. As to the kind of experiment: Steady state kinetic analysis of HuPT1 with olivetolic acid and GPP (yeast microsomes, CBGA production). The assay is classed as biochemical. Conditions: varying olivetolic acid (0.5 μM-1.5 mM), constant GPP (1 mM), pH 8.5, 30° C., 15 min, n=3. The method, then:
as §1, §2, §3

Assay [3] relates to Helichrysum umbraculigerum HuPT3 (SEQ ID NO: 3), N-terminal plastid targeting sequence removed. Description: Steady state kinetic analysis of HuPT3 with olivetolic acid and GPP (yeast microsomes, CBGA production). The note with it: varying olivetolic acid (0.5 μM-1.5 mM), constant GPP (1 mM), pH 8.5, 30° C., 15 min, n=3. The class given is biochemical. The protocol: as §1, §2, §3

Assay [4] deals with Cannabis sativa geranylpyrophosphate:olivetolate geranyltransferase 4 (CsGOT4). The note with it: Luo et al., 2019; cited from earlier work.
Assay [5] can be described thus: In vitro enzymatic assay with PTs: CBGA production by yeast microsomal fractions. The assay is classed as biochemical. The note with it: purified yeast microsomal fraction expressing the PT; OA and GPP as substrates; LC-MS.
Source text: FIG. 2 includes a graph showing in vitro production of cannabigerolic acid (CBGA). Purified microsomal fraction from yeast cells expressing prenyltransferases (PTs) were used in enzyme assay containing olivetolic acid (OA) and geranylpyrophosphate (GPP). Cannabis sativa geranylpyrophosphate:olivetolate geranyltransferase 4 (CsGOT4) enzyme assay was used as positive control in experiment. Extracted ion chromatograms (EICs) are shown. LC-MS was used for assay products analysis. Standard—STD; Negative control—Empty vector.
as §2
The inventors profiled six tissues (young leaf, old leaf, florets and receptacles of flowers, stems, and roots) from H. umbraculigerum, using UPLC-qTOF, and identified CBGA in all the tissues, excluding roots (FIG. 1). CBGA is the known central precursor to Δ^9-tetrahydrocannabinolic acid (THCA), cannabidiolic acid (CBDA) and several other cannabinoids. It is produced from olivetolic acid (OA) and geranyl pyrophosphate (GPP) by an enzymatic reaction catalyzed by geranylpyrophosphate:olivetolate geranyltransferase 4 (GOT4). To identify genes in H. umbraculigerum associated with GOT4 like activity, the inventors searched for candidate prenyltransferase genes in Helichrysum transcriptome. Four prenyltransferase like genes, namely, HuPT1 (SEQ ID NO: 1), HuPT2 (SEQ ID NO: 2), HuPT3 (SEQ ID NO: 3) and HuPTx (SEQ ID NO: 7) were selected for further characterization based on their differential expression profile in leaves compared to other tissues. All these PTs shared less than 40% homology with CsGOT4 that is known to partake in cannabinoid biosynthesis. […]

In general, Km refers to the substrate concentration at which the rate is half of its maximum. For `CCCCCc1cc(O)cc(O)c1C(=O)O` [olivetolic acid], the Km in assay [1] is 2 ± 0.8 µM; in assay [2] it was 19 ± 6.3 µM; in assay [3], 110 ± 44.3 µM; in assay [4] it was 6.7 ± 0.3 µM.

B1: HuPT1: Prenyltransferase from Helichrysum umbraculigerum, gene SEQ ID NO: 1, expressed in yeast microsomes (protein)
chain: MELSLSSSSSSSLPQLHTHPSSSSSSSHYIKKSPFFINKFNNHTKCKFHNSSALRTNFFYTTITKTSSSRFVLNKNPNQFSVKACSQVGSAGSDPALNKVADFKDAFWRFLRPHTIRGTALGSVSLVTRALLENPNLIRWSLLLKAFSGLVALICGNGYIVGINQIYDIGIDKVNKPYLPIAAGDLSVQSAWFLVLAFAMVGVIIVGMNFGPFITSLYSLGLFLGTIYSVPPLRMKRFPVVAFLIIATVRGFLLNFGVYYAVRAALGLTFQWSSAVAFITTFVTLFALVIAITKDLPDVEGDRKFQISTFATKLGVRNIALLGSGLLLINYIGSIVAALYMPQAFRSSLMIPLHTILASCLIYQAWILERANYTQEAIAGYYRFVWNLFYSEYIIFPFI
Regarding B1, the “production of CBGA (PT activity)” value in assay [5] was “clear production of CBGA”.

B2: HuPTx: Prenyltransferase from Helichrysum umbraculigerum, gene SEQ ID NO: 7, expressed in yeast microsomes (protein)
chain: MASLAIGSLGSPSSRQCSSPVASSSSFAIGSQIASKFLRISKFDKTKNSPLTLQQKHINKSIDQSFFEPLPLHKINKDKFKLYATSTNNPQFDATHDLKTPEVSIINFVDALYRLIRPYTAVVTIVSVVAMSLLTVNSLSDFSPLFFIKVVQALIGGIFMQMYVSGFNQICDIELDKVNKQSLPLAAGELSMKTAIVIASLSAIMSLSIGWFVGSPPLLWCLVWWFIVGTAYSANVLPYLRWKRFPFTAAFCAMTSRALVLPIGYYLHMQNSIPGVSALLSRPILFAVAMLSAFSLSAMFFKDIPDIKGDRMHGIKSLAIKLGEKRVYWISISIIEIAYIAAAFIGATSPISWSKYVTIIGHLGMGLLLWVRARSVDPTNTVAVQSMYMFLIKLVYAEYGLISLVR
Take B2: in assay [5], the “production of CBGA (PT activity)” value is “clear production of CBGA”.

B3: HuPT3: Prenyltransferase from Helichrysum umbraculigerum, gene SEQ ID NO: 3, expressed in yeast microsomes (protein)
chain: MKSLIIGSFSNKVSCYSPSLPDSSSSLIPTGCYHVSLRTFQRNRAIQAQSSLVRCNIGKFNETLLLSRKRSTKHVACAVSEQPIEPDATNPQSSLPNALDAFYRFSRPHTVIGTALSIVSVSLLAVQKLSDFSPLFFIGVFEAIVAAFFMNIYIVGLNQLSDIEIDKVNKPYLPLASGEYSVQTGIIIVSSFAVMSFWLGWIVGSWPLFWALFISFLLGTAYSINIPMLRWKRFALVAAMCILAVRAIIVQVAFYLHIQTFVYGRLAVFPKPVIFATGFMSFFSVVIALFKDIPDIVGDKIFGIQSFTVRMGQKRVFWICILLLEIAYGVAILVGASSPFLWSRYITVLGHAILGLILWGRAKSTDLESKSAITSFYMFIWQLFYAEYLLIPLVR
For the molecule B3, the “production of CBGA (PT activity)” value in assay [5] is given as “clear production of CBGA”.
